In the assay the target is T1, human GlyT1c transporter (Homo sapiens, UniProt P48067).
T1 construct: expressed in transfected cells; host or cells: CHO cells (recombinant; line hGlyT1c_5_CHO is named for the uptake assay)
T1 sequence (P48067 1-706): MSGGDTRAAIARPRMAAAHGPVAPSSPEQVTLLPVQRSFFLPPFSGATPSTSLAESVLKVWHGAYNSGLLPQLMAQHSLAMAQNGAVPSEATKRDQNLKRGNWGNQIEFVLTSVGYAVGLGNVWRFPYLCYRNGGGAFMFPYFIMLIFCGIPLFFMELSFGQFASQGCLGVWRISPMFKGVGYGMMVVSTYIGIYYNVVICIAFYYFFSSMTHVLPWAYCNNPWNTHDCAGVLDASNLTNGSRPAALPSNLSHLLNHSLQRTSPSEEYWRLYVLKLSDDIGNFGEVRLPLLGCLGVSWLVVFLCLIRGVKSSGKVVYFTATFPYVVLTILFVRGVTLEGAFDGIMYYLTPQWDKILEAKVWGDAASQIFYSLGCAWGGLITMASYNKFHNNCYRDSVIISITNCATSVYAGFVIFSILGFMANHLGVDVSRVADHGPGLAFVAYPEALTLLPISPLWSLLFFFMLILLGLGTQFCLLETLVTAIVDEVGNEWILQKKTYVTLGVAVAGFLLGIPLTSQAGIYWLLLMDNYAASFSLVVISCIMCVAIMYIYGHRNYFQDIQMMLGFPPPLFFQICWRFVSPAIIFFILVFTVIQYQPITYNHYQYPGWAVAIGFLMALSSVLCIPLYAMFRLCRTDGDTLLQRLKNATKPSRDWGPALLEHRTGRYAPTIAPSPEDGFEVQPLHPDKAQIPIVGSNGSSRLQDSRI
Kind of assay: Radioligand binding assay using recombinant CHO cell membranes expressing human GlyT1. From the text:
2. Radioligand binding assays using recombinant CHO cell membranes expressing human GlyT1: […]

[1] abbreviates: radioligand binding to human GlyT1c transporter-expressing membranes.
The mark [2] stands for this setting: radioligand binding, recombinant CHO cell membranes expressing human GlyT1c.

pKi: −log10 of the molar value.

A word on the pKi: it is the negative decadic logarithm of the Ki, by convention in mol/L. Consider `Cn1cnc(S(=O)(=O)N2C[C@H](Nc3cc(-c4cccc(F)c4)ncn3)[C@@H](c3ccc(F)cc3)C2)c1` [Example 727, 6-(3-fluorophenyl)-N-{(3R,4S)-4-(4-fluorophenyl)-1-[(1-methyl-1H-imidazol-4-yl)sulfonyl]pyrrolidin-3-yl}pyrimidin-4-amine], for which the pKi under setting [1] is not below 8.00.
Regarding `Cc1ccccc1-c1cc(N[C@H]2CN(S(=O)(=O)c3cn(C)cn3)C[C@@H]2c2ccc(F)cc2)ncn1` [Example 723, N-{(3R,4S)-4-(4-fluorophenyl)-1-[(1-methyl-1H-imidazol-4-yl)sulfonyl]pyrrolidin-3-yl}-6-(2-methylphenyl)pyrimidin-4-amine], the negative-log Ki (pKi) under setting [1] is not below 7.00.
Same read-out and setting: next, `O=S(=O)(CC1CCCCO1)N1CC(Nc2ccc(F)c(F)c2)C(c2ccccc2)C1` (centres unmarked) [Example 498, N-(3,4-difluorophenyl)-4-phenyl-1-[(tetrahydro-2H-pyran-2-ylmethyl)sulfonyl]pyrrolidin-3-amine]: not below 5.00.
Still for that read-out and setting: next, `Cc1nc(S(=O)(=O)N2C[C@H](Nc3ccc(F)c(C(F)(F)F)c3)[C@@H](c3ccc(F)cc3)C2)cn1C` [Example 756, (3R,4S)-1-[(1,2-dimethyl-1H-imidazol-4-yl)sulfonyl]-4-(4-fluorophenyl)-N-[4-fluoro-3-(trifluoromethyl)phenyl]pyrrolidin-3-amine]: not below 5.00.
Same read-out and setting: the figure for `Cn1cnc(S(=O)(=O)N2C[C@@H](Nc3cccc(C(F)(F)F)n3)[C@H](c3ccc(F)cc3)C2)c1` (relative stereo) [Example 180, N-{trans-4-(4-fluorophenyl)-1-[(1-methyl-1H-imidazol-4-yl)sulfonyl]pyrrolidin-3-yl}-6-(trifluoromethyl)pyridin-2-amine] is not below 6.00.
Regarding `Cn1cnc(S(=O)(=O)N2C[C@H](Nc3cc(C4CC4)ncn3)[C@@H](c3ccccc3)C2)c1` [Example 612, 6-cyclopropyl-N-{(3R,4S)-1-[(1-methyl-1H-imidazol-4-yl)sulfonyl]-4-phenylpyrrolidin-3-yl}pyrimidin-4-amine], the pKi under setting [1] is not below 6.00.
On the same count and under the same terms, the figure for `Cn1cnc(S(=O)(=O)N2C[C@H](NCc3sc4ccccc4c3Cl)[C@@H](c3ccccc3)C2)c1` [Example 440, (3R,4S)-N-[(3-chloro-1-benzothiophen-2-yl)methyl]-1-[(1-methyl-1H-imidazol-4-yl)sulfonyl]-4-phenylpyrrolidin-3-amine] is not below 7.00; for `O=S(=O)(N1CCOCC1)N1CC(Nc2ccc(F)c(F)c2)C(c2ccccc2)C1` (centres unmarked) [Example 521, N-(3,4-difluorophenyl)-1-(morpholin-4-ylsulfonyl)-4-phenylpyrrolidin-3-amine] it is not below 5.00; for `Cn1cnc(S(=O)(=O)N2CC(c3ccc(F)cc3)C(c3ccc(Cl)cc3)C2)c1` (centres unmarked) [Example 340, 4-{[3-(4-chlorophenyl)-4-(4-fluorophenyl)pyrrolidin-1-yl]sulfonyl}-1-methyl-1H-imidazole] it is not below 6.00.
On the same count and under the same terms, next, `Cc1cc(CN[C@H]2CN(S(=O)(=O)c3cn(C)cn3)C[C@@H]2c2ccccc2)sc1C` [Example 455, (3R,4S)-N-[(4,5-dimethylthiophen-2-yl)methyl]-1-[(1-methyl-1H-imidazol-4-yl)sulfonyl]-4-phenylpyrrolidin-3-amine]: not below 7.00.
As to `Cn1cnc(S(=O)(=O)N2C[C@@H](Nc3ccc(F)c(C(F)(F)F)c3)[C@H](C3CCCO3)C2)c1` (relative stereo) [Example 843, Trans-N-[4-fluoro-3-(trifluoromethyl)phenyl]-1-[(1-methyl-1H-imidazol-4-yl)sulfonyl]-4-(tetrahydrofuran-2-yl)pyrrolidin-3-amine], under setting [2], the pKi is not below 7.00.
For `Cn1cnc(S(=O)(=O)N2C[C@H](OCCNc3ccc(Cl)cc3)[C@@H](c3ccc(F)cc3)C2)c1` [Example 740, 4-chloro-N-[2-({(3R,4S)-4-(4-fluorophenyl)-1-[(1-methyl-1H-imidazol-4-yl)sulfonyl]pyrrolidin-3-yl}oxy)ethyl]aniline], the pKi under setting [1] was not below 5.00.
Still for that read-out and setting: next, `Cn1cnc(S(=O)(=O)N2C[C@H](NCCOc3ccc(C(C)(C)C)cc3)[C@@H](c3ccccc3)C2)c1` [Example 469, (3R,4S)-N-[2-(4-tert-butylphenoxy)ethyl]-1-[(1-methyl-1H-imidazol-4-yl)sulfonyl]-4-phenylpyrrolidin-3-amine]: not below 6.00.
With `Cn1cc(S(=O)(=O)N2C[C@H](Nc3ccc(F)c(Cl)c3)[C@@H](c3ccc(F)cc3)C2)nn1` [Example 842, (3R,4S)-N-(3-chloro-4-fluorophenyl)-4-(4-fluorophenyl)-1-[(1-methyl-1H-1,2,3-triazol-4-yl)sulfonyl]pyrrolidin-3-amine], under setting [2], the pKi was not below 8.00.
Take `Cn1cnc(S(=O)(=O)N2C[C@@H](Nc3nccc(C(F)(F)F)n3)[C@H](c3ccccc3)C2)c1` (relative stereo) [Example 227, N-{trans-1-[(1-methyl-1H-imidazol-4-yl)sulfonyl]-4-phenylpyrrolidin-3-yl}-4-(trifluoromethyl)pyrimidin-2-amine]: under setting [1], the pKi was not below 5.00.
In the case of `Cn1cnc(S(=O)(=O)N2C[C@@H](Nc3ccc(F)c(F)c3)[C@H](c3ncco3)C2)c1` (relative stereo) [Example 709, Trans-N-[3,4-difluorophenyl]-1-[(1-methyl-1H-imidazol-4-yl)sulfonyl]-4-(1,3-oxazol-2-yl)pyrrolidin-3-amine], under setting [1], the pKi is not below 5.00.
As for `COc1ccc(N[C@@H]2CN(S(=O)(=O)c3cn(C)cn3)C[C@H]2c2ccccc2)cc1` (relative stereo) [Example 50, trans-N-(4-methoxyphenyl)-1-[(1-methyl-1H-imidazol-4-yl)sulfonyl]-4-phenylpyrrolidin-3-amine], the pKi under setting [1] was not below 5.00.
As to `Cn1cnc(S(=O)(=O)N2C[C@@H](Nc3cc(C(F)(F)F)cnn3)[C@H](c3ccc(F)cc3)C2)c1` (relative stereo) [Example 383, N-{trans-4-(4-fluorophenyl)-1-[(1-methyl-1H-imidazol-4-yl)sulfonyl]pyrrolidin-3-yl} -5 - (trifluoromethyl)pyridazin-3-amine], the pKi under setting [1] was not below 6.00.
Turning to `CC1=C(CCN[C@H]2CN(S(=O)(=O)c3cn(C)cn3)C[C@@H]2c2ccccc2)C(C)(C)CCC1` [Example 458, (3R,4S)-1-[(1-methyl-1H-imidazol-4-yl)sulfonyl]-4-phenyl-N-[2-(2,6,6-trimethylcyclohex-1-en-1-yl)ethyl]pyrrolidin-3-amine], under setting [1], the pKi was not below 5.00.
For the molecule `Cn1cnc(S(=O)(=O)N2C[C@@H](OCCNCC(F)(F)F)[C@H](c3ccc(F)cc3)C2)c1` (relative stereo) [Example 814, 2,2,2-trifluoro-N-[2-({trans-4-(4-fluorophenyl)-1-[(1-methyl-1H-imidazol-4-yl)sulfonyl]pyrrolidin-3-yl}oxy)ethyl]ethanamine], under setting [2], the pKi was not below 6.00.
For the molecule `Cn1cnc(S(=O)(=O)N2C[C@H](Nc3cc(OCC(F)(F)F)c(F)cn3)[C@@H](c3ccc(F)cc3)C2)c1` [Example 810, 5-fluoro-N-{(3R,4S)-4-(4-fluorophenyl)-1-[(1-methyl-1H-imidazol-4-yl)sulfonyl]pyrrolidin-3-yl}-4-(2,2,2-trifluoroethoxy)pyridin-2-amine], under setting [1], the pKi was not below 8.00.
On the same count and under the same terms, next, `CCCS(=O)(=O)N1C[C@@H](NC(=O)c2ccc(C(F)(F)F)cc2)[C@H](c2ccccc2)C1` (relative stereo) [Example 125, N-[trans-4-phenyl-1-(propylsulfonyl)pyrrolidin-3-yl]-4-(trifluoromethyl)benzamide]: less than 5.00; `Cn1cnc(S(=O)(=O)N2C[C@@H]([C@@H]3CCCOC3)[C@H](Nc3ccc(Cl)c(OC(F)(F)F)c3)C2)c1` (relative stereo) [Example 793, Trans-N-[4-chloro-3-(trifluoromethoxy)phenyl]-1-[(1-methyl-1H-imidazol-4-yl)sulfonyl]-4-[(3S)-tetrahydro-2H-pyran-3-yl]pyrrolidin-3-amine]: not below 5.00; `Cn1cnc(S(=O)(=O)N2C[C@H](NCCCc3cccc(Cl)c3)[C@@H](c3ccccc3)C2)c1` [Example 471, (3R,4S)-N-[3-(3-chlorophenyl)propyl]-1-[(1-methyl-1H-imidazol-4-yl)sulfonyl]-4-phenylpyrrolidin-3-amine]: not below 7.00.
Consider `Cn1cnc(S(=O)(=O)N2C[C@@H](NCc3ccccc3)[C@H](c3ccc(F)cc3)C2)c1` (relative stereo) [Example 148, trans-N-benzyl-4-(4-fluorophenyl)-1-[(1-methyl-1H-imidazol-4-yl)sulfonyl]pyrrolidin-3-amine], for which the pKi under setting [1] is not below 5.00.
In the case of `Cn1cnc(S(=O)(=O)N2C[C@H](NCc3cccnc3-c3ccc(F)cc3)[C@@H](c3ccccc3)C2)c1` [Example 571, (3R,4S)-N-{[2-(4-fluorophenyl)pyridin-3-yl]methyl}-1-[(1-methyl-1H-imidazol-4-yl)sulfonyl]-4-phenylpyrrolidin-3-amine], under setting [1], the pKi is not below 5.00.

Source of the values: patent publication EP2970215B1, “PYRROLIDINE DERIVATIVES, PHARMACEUTICAL COMPOSITIONS CONTAINING THEM, AND THEIR USE IN THERAPY” (AbbVie Deutschland GmbH & Co. KG, priority 2013, dated 2014).
